Test in all cases: NCI-60 cell line screen, 48 h
The test system of assay [1] is HL-60(TB) leukemia.
For assay [2], the system named is 786-0 renal.
The test system of assay [3] is OVCAR-8 ovarian.
The subject of assay [4] is SK-MEL-28 melanoma.
For assay [5], the system named is HCT-15 colon.
Assay [6] has as its system KM12 colon.
Assay [7] deals with M14 melanoma.
Assay [8] concerns DU-145 prostate.
Assay [9] relates to SK-OV-3 ovarian.
For assay [10], the system named is SF-268 CNS.

For 12 compounds, TGI and GI50 results are on record in PubChem BioAssay (NCI).

Each structure is given as a SMILES string.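 Step 1: Grow cells in 96-well plates. Step 2: Expose to compound for 48 hours at 5 concentrations. Step 3: Interpolate endpoints linearly; if unreached, use highest concentration. GI50 = concentration required for 50% inhibition of growth. TGI denotes the concentration required for complete inhibition of growth.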

Regarding `O=C(c1ccc2ccccc2c1)C1S(=O)(=O)OCCOS1(=O)=O`, the TGI in assay [1], in assay [2], in assay [3], in [4], in assay [5] and in [6] was above 100 µM in each case. Besides, the TGI in assay [7] and in assay [8] was above 100 µM in each case.
Regarding `O=C1NC(=S)N/C1=C/c1ccccc1O`, the TGI in [9], in [10], in [1], in [2], in assay [3] and in assay [4] was above 100 µM each time. Moreover, the TGI in assay [5], in assay [7] and in [8] was above 100 µM in each case.
For `Cc1cc(Cc2c(F)c(F)c(Cc3cc(C)no3)c(F)c2F)on1`, the TGI in assay [9], in assay [10], in assay [1], in [2], in [3] and in assay [4] was above 100 µM throughout. Besides, the TGI in assay [5], in assay [7] and in assay [8] was above 100 µM in each case.
Turning to `CN(C(=O)C1(C(=O)C=[N+]=[N-])CC1)c1ccccc1`, the TGI in assay [10], in assay [1], in [2], in [3], in assay [4] and in [5] was above 100 µM throughout. In addition, the TGI in [6], in assay [7] and in [8] was above 100 µM throughout.
Turning to `CC(CCC(=O)O)[C@H]1CCC2[C@H]3C(CC[C@@]21C)[C@@]1(C)CCC(O)C[C@H]1C[C@@H]3O` (stereo not given in full), the TGI in assay [10], in assay [1], in assay [2], in assay [3], in assay [4] and in [5] was above 100 µM in each case. Besides, the TGI in assay [6], in assay [7] and in [8] was above 100 µM throughout.
As for `O=C(c1ccccc1)c1c(C(F)(F)F)n([O-])c2ccccc2[n+]1=O`, the TGI in assay [1] is 1.42 µM; in assay [2], above 100 µM; in assay [3] it was 3.3 µM; in [4], 4.33 µM; in assay [5], above 100 µM; in [6], 3.89 µM. The compound further came in with a TGI in assay [8] of 4.54 µM.
Regarding `N#Cc1c(NC(=O)c2ccccc2)sc2c1CCC(=O)C2`, the GI50 was 2.33 µM in [9]; 2.59 µM in [10]; 0.309 µM in assay [1]; 1.27 µM in assay [3]; 0.395 µM in [5]; 0.711 µM in [6]. Also, the GI50 in assay [8] was 2.98 µM. For the same compound, the TGI in assay [9] was determined as 14.7 µM; in assay [10], 38.4 µM; in assay [1] it was 2.96 µM; in [3], 45 µM; in assay [5], 2.39 µM; in assay [6], 5.22 µM. The same compound gave a TGI in assay [8] above 100 µM.
Consider `OCC1OC(n2cnc3cccnc32)CC1O` (stereo not given), for which the TGI in [10], in assay [1], in assay [2], in assay [3], in [4] and in [5] was above 100 µM each time. For the same compound, the TGI in assay [6], in [7] and in [8] was above 100 µM each time.
Consider `S=C(N/N=C\C=N/NC(=S)N1CCCCCC1)N1CCCCCC1`, for which the TGI in [9], in [10], in assay [2], in [3], in [4] and in assay [5] was above 100 µM each time. The values for the TGI in assay [6], in [7] and in [8] were above 100 µM, above 100 µM and above 86.2 µM, respectively.
For the compound `CC1(C)COC(c2cccc(C3=NC(C)(C)CO3)c2Br)=N1`, the TGI in assay [10], in assay [1], in [2], in assay [3], in [4] and in assay [5] was above 100 µM each time. The TGI in assay [6], in [7] and in [8] was above 100 µM throughout.
With `N#Cc1c(Nc2ccc(F)cc2)[n+]([O-])c2ccc(Cl)cc2[n+]1[O-]`, the TGI was 36.7 µM in assay [9]; 14.2 µM in assay [10]; 27.5 µM in [2]; above 100 µM in [3]; above 100 µM in assay [4]; 13.3 µM in [5]. For the same compound, the TGI in assay [6] was above 100 µM; in [7], 44.2 µM; in assay [8], above 100 µM.
As to `CC[C@]12C=CCN3CCC4(c5cc(N=Nc6ccccc6)c(OC)cc5N(C)[C@H]4[C@@](O)(C(=O)OC)[C@@H]1OC(C)=O)[C@@H]32` (stereo not given in full), the TGI is 33 µM in assay [10]; 38.1 µM in assay [1]; 32.4 µM in [2]; 42.2 µM in assay [3]; 36.8 µM in assay [4]; 34.4 µM in [5]. The values for the TGI in assay [6], in assay [7] and in assay [8] were 37.7 µM, 43.6 µM and 34.9 µM, respectively.
